Like-named read-outs stand apart in the source and are kept apart here.
Tests used:
INS-1 cells = assay: Stimulation test of insulin secretion by INS-1 cells; type: cell-based; settings: Rattus norvegicus, 1 h incubation, 3.5 mM glucose; for activity at 10 µM: INS1, compound at 10 μM, read-out: INS-1 % of ctrl @ 10 μM; for activity at 50 µM: INS1, compound at 50 μM, read-out: INS-1 % of ctrl @ 50 μM
Method: The different compounds were tested on an INS-1 beta-pancreatic line in order to evaluate their capability of potentializing the insulin secretion in response to glucose. Very briefly, the cells are cultivated in a culture medium, RPMI 1640 with 10 mM glucose containing 1 mM of sodium pyruvate, 50 μM of 2-mercaptoethanol, 2 mM of glutamine, 10 mM of HEPES, 100 IU/mL of penicillin, 100 μg/mL of streptomycin and 10% of inactivated fetal calf serum, as described by Asfari et al.. For the insulin secretion test, the INS-1 cells are sown and cultivated in 96-well plates. After 3 days of cultivation at 37° C. in a humid atmosphere (95% air/5% CO2), the medium is removed and the cells are incubated for 16 h in a medium containing 5 mM of glucose and 1% of inactivated fetal calf serum. On the day of the test, the cells are washed with a Krebs buffer (pH 7.4) containing 0.1% of bovine albumin and then pre-incubated for 30 min at 37° C. in this same buffer containing 2.8 mM of glucose. Finally, the cells are again washed with Krebs buffer and then incubated for 1 h in the buffer of the secretion test (Krebs, pH 7.4 containing 0.1% of bovine albumin and 3.5 mM of glucose and molecules to be evaluated). At the end of the test, the cell supernatant is recovered in order to measure therein the secreted insulin, by means of an ELISA kit using a rat anti-insulin antibody (ELISA Alpco Cat no. 80-INSRTH-E10). Each condition is tested in triplicate. The 3.5 mM glucose, the 10^−7M GLP-1 and the Forskoline 10^−7/IBMX 10^−5M mixtures are used as positive controls of the test. A compound stimulates the secretion of insulin if this factor is greater than or equal to 130% of the control for a given glucose dose.

[1] = tested on: hepatocytes isolated from Wistar rat liver; assay: Test of inhibition of hepatic production of glucose (isolated hepatocytes, 3 h or 20 h incubation); type: cell-based; settings: Rattus norvegicus, Hepatocyte, hepatic glucose production, rat hepatocytes; for activity at 50 µM: compound at 50 μM, read-out: HGP % of ctrl @ 50 μM; for activity at 100 µM: compound at 100 μM, read-out: HGP % of ctrl @ 100 μM
Method: The hepatocytes are isolated from Wistar rat liver having fasted for 24 h after perfusion of collagenase in the portal vein. The freshly isolated hepatocytes are sown in 6-well plates coated with collagen and containing an adhesion medium (Williams Medium). After adhesion, the medium is replaced with RPMI 1640 medium without any glucose, containing hydrocortisone (7.10^−5M) for a duration from 16 to 18 h. The next day, the glucose hepatic production test is conducted in a Krebs medium for 3 h. The basal conditions are cells incubated with only Krebs, the stimulated conditions are the cells placed in Krebs+lactate+pyruvate, the produced conditions are the cells exposed to chemical compounds in a Krebs/lactate/pyruvate medium. In the case when the compounds are dissolved in DMSO, all the conditions of the tests are met in the presence of a final concentration of 0.1% DMSO. The positive control of the test is the mercaptopicolinate known for its inhibitory action on hepatic production of glucose via the phosphoenolpyruvate carboxykinase. For short term treatments, the compounds are incubated for 3 h. For long term treatments, the compounds are incubated for 20 h at the moment when the hepatocytes are cultivated in RPMI and then added during the hepatic production test for 3 h. At the end of the 3 hours of incubation, the supernatant is recovered for measurement of glucose with a colorimetric method using glucose oxidase. The cells are lysed with a 0.1% NaOH aqueous solution in order to measure the amount of protein with the Lowry method. The results are expressed in mmols of glucose per mg of protein.

Row | SMILES | activity at 10 µM (INS-1 cells) [%] | activity at 50 µM (INS-1 cells) [%] | activity at 50 µM ([1]; 20 h, 20 h incubation) [%] | activity at 100 µM ([1]; 20 h, 20 h incubation) [%] | activity at 50 µM ([1]; 3 h, 3 h incubation) [%] | activity at 100 µM ([1]; 3 h, 3 h incubation) [%]
1 | CCOC(=O)Cc1cc(C(=NOC)c2ccc(OC)cc2)sc1-c1ccc(Cl)cc1 [compound 106, ethyl 2-(2-(4-chlorophenyl)-5-((methoxyimino)(4-methoxyphenyl)methyl)thiophen-3-yl)acetate] | 148 | 151 | 74 | 45 | – | –
2 | CC(C)OC(=O)Cc1cc(C(=O)c2ccco2)sc1-c1ccc(Cl)cc1 [compound 44, isopropyl 2-(2-(4-chlorophenyl)-5-(furan-2-carbonyl)thiophen-3-yl)acetate] | 180 | 223 | 71 | 61 | 83 | 69
3 | CCON=C(c1ccc(OC)cc1)c1cc(CC(=O)O)c(-c2ccc(Cl)cc2)s1 [compound 108, 2-(2-(4-chlorophenyl)-5-((ethoxyimino)(4-methoxyphenyl)methyl)thiophen-3-yl)acetic acid] | 135 | – | – | – | 88 | 26
4 | CCOC(=O)Cc1cc(C(=O)c2ccco2)sc1-c1ccc(C#N)cc1 [compound 139, ethyl 2-(2-(4-cyanophenyl)-5-(furan-2-carbonyl)thiophen-3-yl)acetate] | 183 | 247 | – | – | – | –
5 | O=C(O)Cc1cc(C(=O)C2CCCCC2)sc1-c1ccccc1 [compound 52, 2-(5-(cyclohexanecarbonyl)-2-phenylthiophen-3-yl)acetic acid] | 127 | 140 | – | – | 61 | 44
6 | O=C(c1ccco1)c1cc(CC(=O)N2CCOCC2)c(-c2ccc(Cl)cc2)s1 [compound 91, 2-(2-(4-chlorophenyl)-5-(furan-2-carbonyl)thiophen-3-yl)-1-morpholino ethanone] | 184 | 152 | – | – | – | –
7 | CCOC(=O)Cc1cc(C(=O)C2CCCCC2)sc1-c1ccc(Cl)cc1 [compound 14, ethyl 2-(2-(4-chlorophenyl)-5-(cyclohexanecarbonyl)thiophen-3-yl)acetate] | 152 | 165 | – | – | 91 | 73
8 | CCOC(=O)Cc1cc(C(=O)c2ccc(Cl)cc2OC)sc1-c1ccc(Cl)cc1 [compound 155, ethyl 2-[5-(4-chloro-2-methoxy-benzoyl)-2-(4-chlorophenyl)-3-thienyl]acetate] | – | 143 | – | – | 65 | 54
9 | COC(=O)Cc1cc(C(=O)c2ccccn2)sc1-c1ccc(Cl)cc1 [compound 148] | 134 | 189 | – | – | 80 | 49
10 | CCOC(=O)Cc1cc(C(=O)c2ccccc2)sc1-c1ccc(OC)cc1 [compound 35, ethyl 2-(5-benzoyl-2-(4-methoxy-phenyl)thiophen-3-yl)acetate] | 128 | 148 | 100 | 70 | – | –
11 | N#CCc1cc(C(=O)c2ccco2)sc1-c1ccc(F)cc1 [compound 145, 2-(2-(4-fluorophenyl)-5-(furan-2-carbonyl)thiophen-3-yl)acetonitrile] | 125 | 145 | – | – | – | –
12 | CCOC(=O)Cc1cc(C(=O)c2ccoc2)sc1-c1ccc(OC)cc1 [compound 28, ethyl 2-(5-(furan-3-carbonyl)-2-(4-methoxyphenyl)thiophen-3-yl)acetate] | 136 | 138 | – | – | – | –
13 | CCOC(=O)Cc1cc(/C(=N/O)c2ccc(OC)cc2)sc1-c1ccc(Cl)cc1 [compound 104, ethyl 2-(2-(4-chlorophenyl)-5-((hydroxyimino)(4-methoxyphenyl)methyl)thiophen-3-yl)acetate] | 153 | 203 | 76 | 50 | – | –
14 | C=C(C(=O)OCC)c1cc(C(=O)c2ccc(OC)cc2)sc1-c1ccc(Cl)cc1 [compound 187, ethyl 2-(2-(4-chlorophenyl)-5-(4-methoxybenzoyl)thiophen-3-yl)acrylate] | 152 | 120 | – | – | – | –
15 | COc1ccc(C(=O)c2cc(CC(=O)N3CCN(C)CC3)c(-c3ccc(Cl)cc3)s2)cc1 [compound 93, 2-(2-(4-chlorophenyl)-5-(4-methoxybenzoyl)thiophen-3-yl)-1-(4-methylpiperazin-1-yl)ethanone] | 149 | – | – | – | – | –
16 | CN(C)CCNC(=O)Cc1cc(C(=O)c2ccco2)sc1-c1ccc(Cl)cc1 [compound 95, 2-(2-(4-chlorophenyl)-5-(furan-2-carbonyl)thiophen-3-yl)-N-(2-(dimethylamino)ethyl)acetamide] | 144 | 147 | – | – | – | –
17 | N#Cc1ccc(-c2sc(C(=O)c3ccco3)cc2CC(=O)O)cc1 [compound 140, 2-(2-(4-cyanophenyl)-5-(furan-2-carbonyl)thiophen-3-yl)acetic acid] | 123 | 188 | – | – | – | –
18 | COCC(C(=O)OC(C)C)c1cc(C(=O)c2ccc(OC)cc2)sc1-c1ccc(Cl)cc1 (stereo not shown) [compound 125] | 154 | 126 | – | – | – | –
19 | COc1ccc(-c2sc(C(=O)c3cccc(OC)c3)cc2CC(=O)OCC2O[C@H]3OC(C)(C)O[C@H]3[C@H]3OC(C)(C)O[C@@H]23)cc1 (stereo partly drawn) [compound 85, ((3aS,5aS,8aS,8bS)-2,2,7,7-tetramethyltetrahydro-3aH-bis([1,3]dioxolo)[4,5-b:4′,5′-d]pyran-5-yl)methyl 2-(5-(3-methoxy-benzoyl)-2-(4-methoxy-phenyl)thiophen-3-yl)acetate] | 146 | – | – | – | – | –
20 | CC(C)OC(=O)Cc1cc(C(=O)c2ccco2)sc1-c1ccc(Cl)c(Cl)c1 [compound 39, isopropyl 2-(2-(3,4-dichlorophenyl)-5-(furan-2-carbonyl)thiophen-3-yl)acetate] | 143 | 389 | – | – | – | –
21 | CCOC(=O)Cc1cc(C(=O)c2cscn2)sc1-c1ccc(OC)cc1 [compound 33, ethyl 2-(2-(4-methoxyphenyl)-5-(thiazole-4-carbonyl)thiophen-3-yl)acetate] | 199 | 280 | – | – | – | –
22 | CN(C)CCNC(=O)Cc1cc(C(=O)c2ccco2)sc1-c1cccc(C#N)c1 [compound 142, 2-(2-(3-cyanophenyl)-5-(furan-2-carbonyl)thiophen-3-yl)-N-(2-(dimethylamino)ethyl)acetamide] | 117 | 175 | – | – | – | –
23 | CCOC(=O)Cc1cc(C(=O)c2cccc(OC)c2)sc1-c1ccc(OC)cc1 [compound 30, ethyl 2-(5-(3-methoxybenzoyl)-2-(4-methoxyphenyl)thiophen-3-yl)acetate] | 157 | – | – | – | – | –
24 | CCOC(=O)Cc1cc(C(=O)N2CCOCC2)sc1-c1ccc(Cl)cc1 [compound 114, ethyl 2-(2-(4-chlorophenyl)-5-(morpholine-4-carbonyl)thiophen-3-yl)acetate] | 150 | – | – | – | – | –
25 | CCOC(=O)Cc1cc(C(=O)c2ccco2)sc1-c1ccc(OC)cc1 [compound 22, ethyl 2-(5-(furan-2-carbonyl)-2-(4-methoxyphenyl)thiophen-3-yl)acetate] | 152 | 207 | – | – | – | –

Source: patent US9777015B2, “Useful thiophene derivatives in the treatment of diabetes” (METABRAIN RESEARCH, priority 2012, dated 2017)
